In patent US20100197782A1, “THERAPEUTIC AGENT FOR VIRUS-ASSOCIATED MALIGNANCY” (priority 2006, published 2010):

How the values were obtained:
[1] = system: HTLV-I-infected T-lymph cell lines (MT-2, MT-4, HUT-102, ED-40515 (−)); test: Measurement of proliferation potency of HTLV-I-infected T-lymph cell lines (WST-8 cell survival rate); format: cell-based; conditions: for effect on the growth of HTLV-I-infected T-lymph cell lines: 10, 5, 2.5 μM, FIG. 3; for effect on the growth of HTLV-I-infected T-lymph cell lines / growth of HTLV-I-infected T-lymph cell lines (cell survival rate): WST-8; for growth of HTLV-I-infected T-lymph cell lines (cell survival rate): 10, 5, 2.5, 1.25, 0.625 μM, FIG. 1
Protocol: (§1) After adding “WST-8” (manufactured by Wako Pure Chemical Industries, Ltd.) in an amount of 5 μL/well as a coloring substrate, cells were cultured for four hours at 37° C.
(§2) Cell survival rate (%)=[1−(A−B)/A]×100 [Formula 1]
(§3) A: Absorbance without agent treatment
(§4) A: Absorbance with agent treatment

[2] = system: EBV-infected B cell lines (Raji, Daudi, B95-8/BJAB, B95-8/Ramos, LCL-Ka, LCL-Ku); test: Measurement of proliferation potency of EBV-infected B cell lines (WST-8 cell survival rate); format: cell-based; conditions: 24 hours; for growth of EBV-infected BL cell lines (cell survival rate): 10, 5, 2.5, 1.25, 0.625 μM, WST-8, FIG. 2
Protocol: as §1, §2, §3, §4

[3] = system: PBMC (leukemia cells) of adult T-cell-leukemia (ATL) patients; test: Measurement of proliferation potency of peripheral blood mononuclear cells of ATL patients (WST-8); format: cell-based, human; conditions: 24 hours; for growth of leukemia cells in ATL patients (PBMC survival rate): five ATL patients, fucoxanthin 0.625-10 μM, fucoxanthinol 0.625-2.5 μM, FIG. 4
[4] = system: PBMC of a healthy person; test: Measurement of proliferation potency of peripheral blood mononuclear cells of a healthy person (WST-8); conditions: for action on normal cells: normal cells versus HTLV-1-infected cells and ATL cells
Protocol: First, the peripheral blood mononuclear cells (PBMC) were separated by the Ficoll centrifugal specific gravity method. The cells were diluted with an RPMI 1640 culture medium containing 10% fetal bovine serum to 2×10^6 cells/mL and spread over a 96-well plate in an amount of 1×10^5 cells/well.
Next, 50 μL/well of fucoxanthin and fucoxanthinol were added to make final concentrations of 10, 5, 2.5, 1.25, and 0.625 μM (fucoxanthin) or 2.5, 1.25 and 0.625 μM (fucoxanthinol), followed by incubation at 37° C. for 24 hours. After adding WST-8 in an amount of 5 μL/well, the cells were cultured for four hours at 37° C. After culturing, absorbance at a wavelength of 450 nm was measured by a microplate reader to determine the survival rate of the cells using the above formula.

[5] = system: HTLV-I-infected cell lines (MT-2, MT-4, HUT-102, ED-40515 (−)); test: Measurement of cell-cycle of HTLV-I-infected cell lines (propidium iodide, flow cytometry); format: cell-based; conditions: 5 μM, 24 hours; FIG. 5
Protocol: 1×10^6 cells of HTLV-I-infected cell lines (MT-2, MT-4, HUT-102, ED-40515 (−)) were scattered over a cell culture plate, and 5 μM of fucoxanthin was added, followed by incubation at 37° C. for 24 hours. After 24 hours, the cells were collected and dyed with propidium iodide to measure the DNA content using a flow sight meter. The cell cycle of each cell was judged by calculating the distribution of the cell group of each cell cycle from the result of the DNA content.

[6] = system: HTLV-I-infected cell lines (MT-2, MT-4, HUT-102, ED-40515 (−)); test: Measurement of apoptosis of HTLV-I-infected cell lines (annexin V, flow cytometry); format: cell-based
Protocol: After 24 hours, the cells were collected and dyed with annexin V to measure the rate (%) of apoptosis-positive cells using a flow sight meter.

[7] = HTLV-1-infected cells and ATL cells

| SMILES | effect on the growth of HTLV-I-infected T-lymph cell lines ([1]; 24 hours) | growth of HTLV-I-infected T-lymph cell lines (cell survival rate) ([1]; 24 hours) | growth of EBV-infected BL cell lines (cell survival rate) [2] | growth of leukemia cells in ATL patients (PBMC survival rate) [3] | action on normal cells [4] | concentration causing apoptosis compared with β-carotene or astaxanthin [6, 7] | also measured |
| --- | --- | --- | --- | --- | --- | --- | --- |
| CC1=C(/C=C/C(C)=C/C=C/C(C)=C/C=C/C=C(C)/C=C/C=C(C)/C=C/C2=C(C)C(=O)[C@@H](O)CC2(C)C)C(C)(C)C[C@H](O)C1=O [astaxanthin, reference compound] | only a slight effect | – | – | – | – | – | – |
| CC(=O)O[C@H]1CC(C)(C)C(=C=C/C(C)=C/C=C/C(C)=C/C=C/C=C(C)/C=C/C=C(\C)C(=O)C[C@@]23O[C@]2(C)C[C@@H](O)CC3(C)C)[C@](C)(O)C1 [fucoxanthin] | – | concentration-dependently suppressed the growth | concentration-dependently suppressed the growth | concentration-dependently suppressed the growth | substantially do not act on normal cells | significantly lower than the corresponding concentration of β-carotene or astaxanthin | effect on the cell cycle of HTLV-I-infected cell lines [5]: suspends the cell cycle of all HTLV-I-infected cell lines at the G1 phase; apoptosis of HTLV-I-infected cell lines (annexin V positive cells) ([6]; MT-2, MT-4, HUT-102, ED-40515 (−), 24 hours, FIG. 6): induces apoptosis in all HTLV-I infected cell lines; concentration dependence of apoptosis of MT-2 ([6]; MT-2, 10, 5, 2.5 μM, 24 hours, FIG. 7): concentration dependent |
| C\C(C=C=C1C(C)(C)C[C@H](O)C[C@@]1(C)O)=C/C=C/C(C)=C/C=C/C=C(C)/C=C/C=C(\C)C(=O)C[C@@]12O[C@]1(C)C[C@@H](O)CC2(C)C [fucoxanthinol] | – | concentration-dependently suppressed the growth | concentration-dependently suppressed the growth | concentration-dependently suppressed the growth | substantially do not act on normal cells | significantly lower than the corresponding concentration of β-carotene or astaxanthin | survival rate of the cells ([1]; HTLV-1-infected cells and ATL cells, at a concentration of one micromole or less): almost zero; capability to inhibit growth compared with fucoxanthin ([1]; HTLV-I-infected T-lymph cell lines, 24 hours): significantly higher than that of fucoxanthin; capability to inhibit growth compared with fucoxanthin ([2]; EBV-infected BL cell lines): significantly higher than that of fucoxanthin; effect on growth potency compared with fucoxanthin ([3]; PBMC of ATL patients): higher than that of fucoxanthin; toxicity against the PBMC of the healthy person ([4]; fucoxanthin 0.625-10 μM, fucoxanthinol 0.625-2.5 μM, 24 hours, FIG. 4): no toxicity; concentration causing apoptosis [6, 7]: one micromole or less; apoptosis-inducing effect compared with fucoxanthin ([6]; MT-2, 24 hours): stronger than that of fucoxanthin; apoptosis of MT-2 (annexin V positive cells) ([6]; MT-2, 10, 5, 2.5, 1.25, 0.625 μM, 24 hours, FIG. 8): induces apoptosis in MT-2 |
| CC1=C(/C=C/C(C)=C/C=C/C(C)=C/C=C/C=C(C)/C=C/C=C(C)/C=C/C2=C(C)CCCC2(C)C)C(C)(C)CCC1 [β-carotene, reference compound] | only a slight effect | – | – | – | – | – | – |
